Read-outs that look alike come from different tables or passages of the source.
Columns and labels:
A2780 = assay: XTT cytotoxicity assay, 5-day culture, A2780; assay type: cell-based; details: Homo sapiens, 120 h, A2780, Ovarian Ca, 5 days, read-out: IC50 (μM ± SEM)
Procedure: (§1) Actinonin was assayed for cytotoxity in human ovarian carcinoma, prostate carcinoma, mammary carcinoma, head and neck squamous cell carcinoma (HNSSC), non-small-cell-lung-cancer adenocarcinoma (NSCLC-AdCa), and non-small-cell-lung-cancer squamous cells (NSCLC-SSC) (15). Actinonin was also tested against acute mylegenous leukemia (AML) cells.

TSU-PR^1 = assay: XTT cytotoxicity assay, 5-day culture, TSU-PR1; assay type: cell-based; details: Homo sapiens, 120 h, TSU-PR1, Prostate Ca, 5 days, read-out: IC50 (μM ± SEM)
Procedure: as §1

PC-3 = assay: XTT cytotoxicity assay, 5-day culture, PC-3; assay type: cell-based; details: Homo sapiens, 120 h, PC-3, Prostate Ca, 5 days, read-out: IC50 (μM ± SEM)
Procedure: as §1

DU-145 = assay: XTT cytotoxicity assay, 5-day culture, DU-145; assay type: cell-based; details: Homo sapiens, 120 h, DU-145, Prostate Ca, 5 days, read-out: IC50 (μM ± SEM)
Procedure: as §1

HL-60 = assay: XTT cytotoxicity assay, 5-day culture, HL-60; assay type: cell-based; details: Homo sapiens, 120 h, HL-60, PML, 5 days, read-out: IC50 (μM ± SEM)
Procedure: as §1

MDA-MB468 = assay: XTT cytotoxicity assay, 5-day culture, MDA-MB468; assay type: cell-based; details: Homo sapiens, MDA-MB-468, 120 h, MDA-MB468, Mammary Ca, 5 days, read-out: IC50 (μM ± SEM)
Procedure: as §1

SK-BRIII = assay: XTT cytotoxicity assay, 5-day culture, SK-BRIII; assay type: cell-based; details: Homo sapiens, 120 h, Mammary Ca, 5 days, read-out: IC50 (μM ± SEM)
Procedure: as §1

HT1080 = assay: XTT cytotoxicity assay, 5-day culture, HT1080; assay type: cell-based; details: Homo sapiens, HT-1080, 120 h, HT1080, HNSSC, 5 days, read-out: IC50 (μM ± SEM)
Procedure: as §1

SK-LC-8 = assay: XTT cytotoxicity assay, 5-day culture, SK-LC-8; assay type: cell-based; details: Homo sapiens, 120 h, SK-LC-8, NSCLC-AdCa, 5 days, read-out: IC50 (μM ± SEM)
Procedure: as §1

SK-LC-16 = assay: XTT cytotoxicity assay, 5-day culture, SK-LC-16; assay type: cell-based; details: Homo sapiens, 120 h, SK-LC-16, NSCLC-SSC, 5 days, read-out: IC50 (μM ± SEM)
Procedure: as §1

[1] = tested on: all the cell lines tested; assay: Cytotoxicity of actinonin, summary over all cell lines tested; assay type: cell-based, human; details: in the μM range
Procedure: as §1

[2] = tested on: CWR22 human prostate tumor; details: for Change in tumor Vol. (mm^3): initial 45 mm^3; for Ave. Tumor Diameter (mm ± SEM): initial tumor diameter 4.4
Procedure: Actinonin was also evaluated against the CWR22 human prostate tumor xenografted in nude mice (15).

[3] = tested on: Daudi (B lineage Burkitt's lymphoma, CD13 negative) cells; assay: Inhibition of tritiated thymidine incorporation, 5 day, Daudi; assay type: cell-based; details: Homo sapiens, 120 h, 5 days
Procedure: (§2) Actinonin was purchased from Sigma (St. Louis, Mo.). Biotinylated-Actinonin and all analogs were synthesized. Actinonin stock solution was 5 mg/ml in 10% ethanol. Biotinylated-actinonin and all other analogs were diluted in 10% DMSO to give stock solutions in the range of 1-20 mg/ml.
(§3) Daudi (B lineage Burkitt's lymphoma, CD13 negative) and HL60 (acute myeloid leukemia, CD13 positive) cells were maintained in culture using RPMI 1640 supplemented with 10% heat-inactivated FBS (Omega Scientific, Inc., Tarzana, Calif.) and 1% L-glutamine (Gibco/Invitrogen, Carlsbad, Calif.) at 37° C. in a humidified atmosphere of 5% CO2. Cell viability was higher than 90%, and cells were free of mycoplasma contamination.
(§4) An aliquot of 200 ul of cells (10,000 cells/well) was washed and incubated at 37° C. in 96-well plates in the presence or absence of actinonin/analogs. Serial dilutions were made in complete media. After 5 days of incubation, 50 ul of 10 uCi/mL tritiated thymidine (PerkinElmer, Boston, Mass.) was added to each well and allowed to incorporate for 5 hours. Plates were frozen at −80° C. overnight and cells were harvested onto filtermats (Wallac, Finland) using a semi-automatic harvester (Skatron, Sterling, Va.). Filtermats were counted in a 1205 Betaplate™ liquid scintillation counter (Wallac, Finland). The reference numbers refer to those analogs disclosed in Example 6. Compounds 35, 42, 48, 52, 53, and 56 are effective at inhibiting cell growth.

[4] = tested on: HL60 (acute myeloid leukemia, CD13 positive) cells; assay: Inhibition of tritiated thymidine incorporation, 5 day, HL60; assay type: cell-based; details: Homo sapiens, HL-60, 120 h, HL60, 5 days
Procedure: as §2, §3, §4

tumor cell lines = details: cited from earlier work
[5] = tested on: human leukemia and lymphoma cells; details: cited from earlier work
AKR leukemia = details: cited from earlier work

## CCCCC[C@H](CC(=O)NO)C(=O)N[C@H](C(=O)N1CCC[C@H]1CO)C(C)C [Actinonin, (S,S,R)-(−)-Actinonin]
A2780
  IC50: 4.8 ± 1 µM
TSU-PR^1
  IC50: 9.1 ± 1.5 µM
PC-3
  IC50: 10 ± 1 µM
DU-145
  IC50: 17 µM
HL-60
  IC50: 6.8 ± 1 µM
MDA-MB468
  IC50: 7.1 ± 1 µM
SK-BRIII
  IC50: 7.9 ± 1 µM
HT1080
  IC50: 11 ± 2 µM
SK-LC-8
  IC50: 14 ± 2 µM
SK-LC-16
  IC50: 12 ± 2 µM
[1]
  cytotoxicity against all the cell lines tested: remarkably cytotoxic
[2]; 300 mg/kg ip
  Inhibition T/C %: 97%
  Change in tumor Vol. (mm^3): +36 mm^3
  Ave. Tumor Diameter (mm ± SEM): 5.4 ± 1 mm
[2]; 600 mg/kg ip
  Inhibition T/C %: 88%
  Change in tumor Vol. (mm^3): +142 mm^3
  Ave. Tumor Diameter (mm ± SEM): 7.1 ± 2 mm
[2]; at a dose slightly below the maximum tolerated dose (MTD) for the mouse
  tumor growth inhibition: excellent tumor growth inhibition
[3]; read-out: Daudi IC50 (uM), 5 day thymidine incorporation
  IC50: 6.7 µM
[3]; read-out: Daudi IC50 (ug/mL), 5 day thymidine incorporation
  IC50: 2.6 µg/mL
[4]; read-out: HL60 IC50 (uM), 5 day thymidine incorporation
  IC50: 10.6 µM
[4]; read-out: HL60 IC50 (ug/mL), 5 day thymidine incorporation
  IC50: 4.1 µg/mL
Tumor cell lines
  cytotoxicity towards tumor cell lines in vitro: exhibits cytotoxicity
[5]
  cell cycle arrest and apoptosis: induces GI arrest and apoptosis
AKR leukemia; AKR mice
  treatment of AKR leukemia: treats AKR leukemia
AKR leukemia; mouse, in vivo
  toxicity in AKR mice: minimal toxicity

Reference: US6660741B2, “Asymmetric synthesis of (S,S,R)-(-)-actinonin and its analogs and uses therefor” (Sloan-Kettering Institute for Cancer Research, priority 2001, dated 2003)
